Data: ChEMBL document CHEMBL3639218, “Bicyclic heterocycle compounds and their uses in therapy” (2015)
pIC50: −log10 of the molar value.

Tests used:
[1] = target: E3 ubiquitin-protein ligase XIAP (Homo sapiens, UniProt P98170); experiment: In vitro Competitive Displacement Binding Assays : Modified SMAC peptides and compounds were tested for their ability to displace the fluorescent tracer from either XIAP, clAP-1 or clAP-2. BIR3 domains of clAP-1 , clAP-2 and XIAP were incubated with test compounds or SMAC based peptides and their respective peptide probes (Peptide Protein Research) in assay buffer (50mM Hepes pH 7.5, […] Tween-
[2] = target: Baculoviral IAP repeat-containing protein 2 (Homo sapiens, UniProt Q13490); experiment: as above

SMILES	pIC50 [1]	pIC50 [2]
CC(C)[C@H]1CN[C@H](C)CN1CC(=O)N1CCc2ccc(Br)cc21	5.62	
C[C@@H]1CN(CC(=O)N2CCc3ccc(Br)cc32)CCN1		4.40
COC[C@H]1CN[C@H](C)CN1CC(=O)N1CC(C)(C)c2cnc(CCC(C)C)cc21		7.80
